Experimental data published in publication PMC4680857, “Rat and human STINGs profile similarly towards anticancer/antiviral compounds” (Scientific Reports, 2015).
Positions count from the first letter of the chain named. Read-outs that look alike come from different tables or passages of the source.

Assays:
[1] = target: T1, rSTING CTD (residues 155–341) (Rattus norvegicus, UniProt F1M391); assay: ITC binding to rSTING-CTD
T1 construct: rSTING (residues 155–341); His tag (TEV protease-cleavable) (N); made in house; host or cells: Escherichia coli BL21 (DE3)
T1 sequence (F1M391 155-341): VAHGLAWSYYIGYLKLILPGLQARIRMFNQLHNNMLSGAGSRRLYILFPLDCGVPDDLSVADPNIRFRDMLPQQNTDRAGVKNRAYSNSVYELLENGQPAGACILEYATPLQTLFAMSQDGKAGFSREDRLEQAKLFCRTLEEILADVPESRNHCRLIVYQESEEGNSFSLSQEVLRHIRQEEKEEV
Procedure: (§1) The plasimids of pET28a-rSTING^CTD, hSTING^CTD, mSTING^CTD and their variants were transformed into Escherichia coli BL21 (DE3) cells for overexpression. Cells were induced at 18 °C with 0.5 mM isopropyl β-d-1-thiogalactopyranoside for 20 hours, then collected and resuspended in buffer A (20 mM Tris-HCl, pH 8.0, 500 mM NaCl). Cells were subjected to ultrasonic lysis and clarified by centrifugation at 21,500 rpm for 90 minutes. Supernatants were loaded onto a HiTrap HP column (GE Healthcare, USA) equilibrated with buffer A. The contaminants were washed with buffer A containing 100 mM imidazole. The target proteins were eluted with buffer A containing 500 mM imidazole. Eluates were further purified by ion-exchange chromatography (HiTrap Q, GE Healthcare) and eluted with a linear sodium chloride gradient. Further purification steps were conducted through gel filtration (Superdex-200; GE Healthcare) equilibrated with 20 mM Tris–HCl, pH 8.0, 200 mM NaCl.
(§2) ITC measurements were performed with an iTC200 instrument (GE Healthcare) at 25 °C. […] A typical titration experiment involved 19 injections of ligand (2 mM) solution into the ITC cell containing protein (0.2 mM). The data were fitted to titration curves with Origin v7.0 (MicroCal).

[2] = test system: hSTING haplotypes with residue 230 mutations; assay: IFN-β luciferase assay, residue 230 mutations in hSTING haplotypes; type: cell-based, human; details: 2′3′-cGAMP stimulation (Fig. 5c)
[3] = target: T2, rSTING T230I (Rattus norvegicus, UniProt F1M391, T230I); assay: ITC binding to rSTING T230I
T2 construct: rSTING (residues 155–341); His tag (TEV protease-cleavable) (N); made in house; host or cells: Escherichia coli BL21 (DE3)
T2 sequence (F1M391 155-341 T230I): T1 sequence (F1M391 155-341) with T76I
Procedure: as §1, §2

[4] = test system: hSTING G230I variant; design: method as in Gao et al. [35]; details: ref Gao et al. [35]; cited from earlier work
[5] = target: T3, hSTING CTD (residues 155–341) (Homo sapiens, UniProt Q86WV6, G230A/H232R); assay: ITC binding to hSTING-CTD
T3 construct: hSTING (residues 155–341); His tag (TEV protease-cleavable) (N); made in house; host or cells: Escherichia coli BL21 (DE3)
T3 sequence (Q86WV6 155-341 G230A/H232R): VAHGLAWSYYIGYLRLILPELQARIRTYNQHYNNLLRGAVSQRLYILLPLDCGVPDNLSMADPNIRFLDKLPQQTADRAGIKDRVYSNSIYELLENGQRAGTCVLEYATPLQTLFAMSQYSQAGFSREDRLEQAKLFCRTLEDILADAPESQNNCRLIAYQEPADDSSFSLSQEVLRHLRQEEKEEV
Procedure: as §1, §2

[6] = test system: hSTING with A230 replaced by Ile or Leu; assay: ITC binding to hSTING mutants (Fig. S6); design: species or system human
Procedure: as §2

[7] = target: T4, rSTING T230L (Rattus norvegicus, UniProt F1M391, T230L); assay: ITC binding to rSTING T230L
T4 construct: rSTING (residues 155–341); His tag (TEV protease-cleavable) (N); made in house; host or cells: Escherichia coli BL21 (DE3)
T4 sequence (F1M391 155-341 T230L): T1 sequence (F1M391 155-341) with T76L
Source text: The C-terminal domain of rSTING (residues 155–341), hSTING (residues 155–341), mSTING (residues 154–340) for ITC measurements, hereafter named rSTING^CTD, hSTING^CTD, mSTING^CTD, were constructed by cloning into pET28a vector between Nde I and Xho I restriction sites, which contains N-terminal TEV protease-cleavable His tag. All point mutations were generated by PCR-based site-directed mutagenesis method with KOD FX as the polymerase.
The plasimids of pET28a-rSTING^CTD, hSTING^CTD, mSTING^CTD and their variants were transformed into Escherichia coli BL21 (DE3) cells for overexpression. Cells were induced at 18 °C with 0.5 mM isopropyl β-d-1-thiogalactopyranoside for 20 hours, then collected and resuspended in buffer A (20 mM Tris-HCl, pH 8.0, 500 mM NaCl). Cells were subjected to ultrasonic lysis and clarified by centrifugation at 21,500 rpm for 90 minutes. Supernatants were loaded onto a HiTrap HP column (GE Healthcare, USA) equilibrated with buffer A. The contaminants were washed with buffer A containing 100 mM imidazole. The target proteins were eluted with buffer A containing 500 mM imidazole. Eluates were further purified by ion-exchange chromatography (HiTrap Q, GE Healthcare) and eluted with a linear sodium chloride gradient. Further purification steps were conducted through gel filtration (Superdex-200; GE Healthcare) equilibrated with 20 mM Tris–HCl, pH 8.0, 200 mM NaCl. […]

| SMILES | Kd [1] [nM] | binding affinity (in words) [1] | cGAMP-induced IFN-β production, differences between residue 230 mutations [2] | Kd ([1]; ITC, 25 °C, WT rSTING-CTD (T230)) [nM] | binding affinity (in words) ([1]; ITC, rSTING CTD) | ΔH ([3]; rSTING T230I) [kcal/mol] | ΔS ([3]; rSTING T230I) [cal/mol/deg] | binding affinity greater than that for WT rSTING ([3]; rSTING T230I vs WT rSTING) [fold] | ΔH ([1]; ITC, rSTING T230(WT)) [kcal/mol] | ΔS ([1]; ITC, rSTING T230(WT)) [cal/mol/deg] | response of STING variant to compound [4] | binding affinity (in words) [5] | binding by ITC (in words) [6] | ΔH [7] [kcal/mol] | ΔS [7] [cal/mol/deg] |
| --- | --- | --- | --- | --- | --- | --- | --- | --- | --- | --- | --- | --- | --- | --- | --- |
| Nc1nc2c(ncn2[C@@H]2O[C@@H]3COP(=O)(O)O[C@H]4[C@@H](O)[C@H](n5cnc6c(N)ncnc65)O[C@@H]4COP(=O)(O)O[C@@H]2[C@@H]3O)c(=O)[nH]1 [2′3′-cGAMP, cyclic GMP-AMP with 2′5′ and 3′5′ phosphodiester linkage] | 120 ± 30 | high binding affinities | no differences |  |  |  |  |  |  |  |  |  |  |  |  |
| Nc1nc2c(ncn2[C@@H]2O[C@@H]3COP(=O)(O)O[C@H]4[C@@H](O)[C@H](n5cnc6c(N)ncnc65)O[C@@H]4COP(=O)(O)O[C@H]3[C@H]2O)c(=O)[nH]1 [3′3′-cGAMP] |  |  |  | 550 ± 110 | high binding affinities |  |  |  |  |  |  |  |  |  |  |
| Cc1ccc2c(=O)c3cccc(CC(=O)O)c3oc2c1C [DMXAA, 5,6-Dimethylxanthenone 4-acetic acid] |  |  |  |  | none or only weak affinity | -3.86 ± 0.10 | 16.0 | 50 | -2.77 ± 0.09 | 11.7 | can respond | none or only weak affinity | detectable binding | -2.31 ± 0.07 | 16.6 |
